The values below come from patent US8853246B2 (Dow AgroSciences LLC, priority 2009, dated 2014).

Read-outs that look alike come from different tables or passages of the source.

Experiment [1] has as its system Sweetpotato Whitefly-Crawler (Bemisia Tabaci). Kind of experiment: Insecticidal test for sweetpotato whitefly-crawler in foliar spray assay (col. BEMITA). In kind it is in vivo. Conditions: for pest or weed control at 200 ppm: Bemisia tabaci, read-out: BEMITA 200 ppm (Corrected % Control, rating). As for the experimental part:
(§1) The compounds were tested against cotton aphid, green peach aphid, and sweet potato whitefly using procedures described in the following examples and reported in Table 2.
(§2) In each case of Table 2, the rating scale is as follows at 200 ppm.
Insecticidal Test for Sweetpotato Whitefly-Crawler (Bemisia Tabaci) in Foliar Spray Assay
Cotton plants grown in 3-inch pots, with 1 small (3-5 cm) true leaf, were used as test substrate. The plants were placed in a room with whitefly adults. Adults were allowed to deposit eggs for 2-3 days. After a 2-3 day egg-laying period, plants were taken from the adult whitefly room. Adults were blown off leaves using a hand-held Devilbiss sprayer (23 psi). Plants with egg infestation (100-300 eggs per plant) were placed in a holding room for 5-6 days at 82° F. and 50% RH for egg hatch and crawler stage to develop. Four cotton plants were used for each treatment. Compounds (2 mg) were dissolved in 1 mL of acetone solvent, forming stock solutions of 2000 ppm. The stock solutions were diluted 10× with 0.025% Tween 20 in H2O to obtain a test solution at 200 ppm. A hand-held Devilbiss sprayer was used for spraying a solution to both sides of cotton leaf until runoff. Reference plants (solvent check) were sprayed with the diluent only. Treated plants were held in a holding room for 8-9 days at approximately 82° F. and 50% RH prior to grading. Evaluation was conducted by counting the number of live nymphs per plant under a microscope. Insecticidal activity was measured by using Abbott's correction formula and presented in Table 2 (see col. “BEMITA”): Corrected % Control=100*(X−Y)/X • where X=No. of live nymphs on solvent check plants • Y=No. of live nymphs on treated plants Pesticidally Acceptable Acid Addition Salts, Salt Derivatives, Solvates, Ester Derivatives, Polymorphs, Isotopes and Radionuclides

Experiment [2] deals with Green Peach Aphid (Myzus Persicae). The experiment can be described thus: Insecticidal test for green peach aphid in foliar spray assay (col. MYZUPE). Format: in vivo. Conditions: Myzus persicae, 72 h, read-out: MYZUPE 200 ppm (Corrected % Control, rating). The method, then:
as §1, §2
Insecticidal Test for Green Peach Aphid (Myzus Persicae) in Foliar Spray Assay
Cabbage seedlings grown in 3-inch pots, with 2-3 small (3-5 cm) true leaves, were used as test substrate. The seedlings were infested with 20-50 green peach aphids (wingless adult and nymph) one day prior to chemical application. Four pots with individual seedlings were used for each treatment. Compounds (2 mg) were dissolved in 2 mL of acetone/methanol (1:1) solvent, forming stock solutions of 1000 ppm. The stock solutions were diluted 5× with 0.025% Tween 20 in H2O to obtain a test solution at 200 ppm. A hand-held Devilbiss sprayer was used for spraying a solution to both sides of cabbage leaves until runoff. Reference plants (solvent check) were sprayed with the diluent only. Treated plants were held in a holding room for three days at approximately 25° C. and 40% relative humidity (RH) prior to grading. Evaluation was conducted by counting the number of live aphids per plant under a microscope. Corrected % Control=100*(X−Y)/X • where X=No. of live aphids on solvent check plants • Y=No. of live aphids on treated plants

In the case of `CCO[C@@H]1[C@@H](OC)[C@H](C)OC(OC(=O)Nc2sc(-c3cccnc3)nc2C)[C@@H]1OC` (mixture of isomers) [Compound 182], the pest or weed control at 200 ppm in experiment [1] (sweetpotato whitefly-crawler) is < 80%; in experiment [2] (green peach aphid) it was 80 to 100%. Consider `CS[C@H]1CC1C(=O)N(C)c1sc(-c2cncc(F)c2)nc1Cl` (mixture of isomers) [Compound 445], for which the pest or weed control at 200 ppm in experiment [1] (Abbott's correction formula) and in experiment [2] (Abbott's correction formula) was 80 to 100% each time. Consider `CCN(C(=O)C1C[C@@H]1SC)c1sc(-c2cncc(F)c2)nc1Cl` (mixture of isomers) [Compound 448], for which the pest or weed control at 200 ppm in experiment [1] (Abbott's correction formula) and in experiment [2] (Abbott's correction formula) was 80 to 100% in each case. With `CN(C(=O)C(F)(F)F)c1cnc(-c2cncc(F)c2)s1` [Compound 1, 2,2,2-trifluoro-N-[2-(5-fluoropyridin-3-yl)-thiazol-5-yl]-N-methyl-acetamide], the pest or weed control at 200 ppm in experiment [1] (sweetpotato whitefly-crawler) was 80 to 100%; in experiment [2] (green peach aphid), < 80%. Take `CN(C(=O)C(F)(F)F)c1cnc(-c2cccnc2)s1` [Compound 2, 2,2,2-Trifluoro-N-methyl-N-(2-pyridin-3-yl-thiazol-5-yl)-acetamide]: the pest or weed control at 200 ppm in experiment [1] (sweetpotato whitefly-crawler) and in experiment [2] (green peach aphid) was < 80% throughout. In the case of `CCc1nc(-c2cccnc2)sc1N(C)C(=O)C(F)(F)F` [Compound 3, N-(4-Ethyl-2-pyridin-3-yl-thiazol-5-yl)-2,2,2-trifluoro-N-methyl-acetamide], the pest or weed control at 200 ppm in experiment [1] (sweetpotato whitefly-crawler) and in experiment [2] (green peach aphid) was < 80% in each case. On to `CN(C(=O)C(F)(F)F)c1sc(-c2cccnc2)nc1-c1ccccc1` [Compound 4, 2,2,2-Trifluoro-N-methyl-N-(4-phenyl-2-pyridin-3-yl-thiazol-5-yl)-acetamide], for which the pest or weed control at 200 ppm in experiment [1] (sweetpotato whitefly-crawler) and in experiment [2] (green peach aphid) was < 80% each time. Turning to `CN(C(=O)C(F)(F)F)c1sc(-c2cccnc2)nc1Cl` [Compound 6, N-(4-Chloro-2-pyridin-3-yl-thiazol-5-yl)-2,2,2-trifluoro-N-methyl-acetamide], the pest or weed control at 200 ppm in experiment [1] (sweetpotato whitefly-crawler) and in experiment [2] (green peach aphid) was < 80% throughout. Take `CC(C)(C)OC(=O)Nc1sc(-c2cccnc2)nc1C(F)(F)F` [Compound 7, (2-pyridin-3-yl-4-trifluoromethyl-thiazol-5-yl)-carbamic acid tert-butyl ester]: the pest or weed control at 200 ppm in experiment [1] (sweetpotato whitefly-crawler) and in experiment [2] (green peach aphid) was < 80% in each case.

Consider `Cc1nc(-c2cncnc2)sc1NC(=O)OC(C)(C)C` [Compound 8, (4-Methyl-2-pyrimidin-5-yl-thiazol-5-yl)-carbamic acid tert-butyl ester], for which the pest or weed control at 200 ppm in experiment [2] (green peach aphid) was in the range of 80 to 100%. Regarding `Cc1nc(-c2cccnc2)sc1NC(=O)OC(C)(C)C` [Compound 9, (4-Methyl-2-pyridin-3-yl-thiazol-5-yl)-carbamic acid tert-butyl ester], the pest or weed control at 200 ppm in experiment [1] (sweetpotato whitefly-crawler) and in experiment [2] (green peach aphid) was 80 to 100% in each case.

As to `CN(C(=O)OC(C)(C)C)c1sc(-c2cccnc2)nc1C(F)(F)F` [Compound 10, methyl-(2-pyridin-3-yl-4-trifluoromethyl-thiazol-5-yl)carbamic acid tert-butyl ester], the pest or weed control at 200 ppm was 80 to 100% in experiment [1] (sweetpotato whitefly-crawler) and < 80% in experiment [2] (green peach aphid). For the compound `Cc1nc(-c2cncnc2)sc1N(C)C(=O)OC(C)(C)C` [Compound 11, Methyl-(4-methyl-2-pyrimidin-5-yl-thiazol-5-yl)-carbamic acid tert-butyl ester], in experiment [2] (green peach aphid), the pest or weed control at 200 ppm is < 80%. Turning to `CCN(C(=O)OC(C)(C)C)c1sc(-c2cccnc2)nc1C` [Compound 12, Ethyl-(4-methyl-2-pyridin-3-yl-thiazol-5-yl)-carbamic acid tert-butyl ester], the pest or weed control at 200 ppm in experiment [1] (sweetpotato whitefly-crawler) and in experiment [2] (green peach aphid) was 80 to 100% throughout. With `Cc1nc(-c2cccnc2)sc1N(C(=O)OC(C)(C)C)C(C)C` [Compound 13, Isopropyl-(4-methyl-2-pyridin-3-yl-thiazol-5-yl)-carbamic acid tert-butyl ester], the pest or weed control at 200 ppm in experiment [1] (sweetpotato whitefly-crawler) and in experiment [2] (green peach aphid) was 80 to 100% throughout. As for `Cc1nc(-c2cccnc2)sc1N(CC(C)C)C(=O)OC(C)(C)C` [Compound 14, Isobutyl-(4-methyl-2-pyridin-3-yl-thiazol-5-yl)-carbamic acid tert-butyl ester], the figures for the pest or weed control at 200 ppm in experiment [1] (sweetpotato whitefly-crawler) and in experiment [2] (green peach aphid) were 80 to 100% and < 80%, respectively.

Turning to `Cc1nc(-c2cccnc2)sc1N(Cc1ccccc1)C(=O)OC(C)(C)C` [Compound 15, Benzyl-(4-methyl-2-pyridin-3-yl-thiazol-5-yl)-carbamic acid tert-butyl ester], the pest or weed control at 200 ppm in experiment [1] (sweetpotato whitefly-crawler) and in experiment [2] (green peach aphid) was 80 to 100% in each case. As to `CN(C(=O)OC(C)(C)C)c1cnc(-c2ccc(Cl)nc2)s1` [Compound 16, [2-(6-chloropyridin-3-yl)-thiazol-5-yl]-methyl-carbamic acid tert-butyl ester], the pest or weed control at 200 ppm in experiment [1] (sweetpotato whitefly-crawler) is 80 to 100%; in experiment [2] (green peach aphid), < 80%. On the same counts, the results for `CSCC(C)C(=O)Nc1sc(-c2cncc(Cl)c2)nc1C` (stereo not drawn) [Compound 17, N-[2-(5-chloropyridin-3-yl)-4-methyl-thiazol-5-yl]-2-methyl-3-methylsulfanyl-propionamide] are 80 to 100% and 80 to 100%. On the same counts, the results for `CSCC(C)(C)C(=O)N(C)c1cnc(-c2cncc(F)c2)s1` [Compound 18, N-[2-(5-fluoropyridin-3-yl)-thiazol-5-yl]-2,2,N-trimethyl-3-methylsulfanyl-propionamide] are 80 to 100% and 80 to 100%. On the same counts, the results for `CSCC(C)(C)C(=O)Nc1sc(-c2ccc(F)nc2)nc1C` [Compound 20, N-[2-(6-fluoropyridin-3-yl)-4-methyl-thiazol-5-yl]-2,2-dimethyl-3-methylsulfanyl-propionamide] are 80 to 100% and 80 to 100%.

On to `Cc1nc(-c2cccnc2)sc1N(C(=O)C(C)C)C(=O)C(C)C` [Compound 21, N-isobutyryl-N-(4-methyl-2-pyridin-3-yl-thiazol-5-yl)-isobutyramide], for which the pest or weed control at 200 ppm in experiment [1] (sweetpotato whitefly-crawler) and in experiment [2] (green peach aphid) was 80 to 100% in each case. On to `CSCCC(=O)N(C)c1sc(-c2cccnc2)nc1C` [Compound 35], for which the pest or weed control at 200 ppm in experiment [1] (sweetpotato whitefly-crawler) and in experiment [2] (green peach aphid) was 80 to 100% throughout.

On to `CSCC(C)C(=O)N(C)c1sc(-c2cccnc2)nc1C` (stereo not drawn) [Compound 36], for which the pest or weed control at 200 ppm in experiment [1] (sweetpotato whitefly-crawler) and in experiment [2] (green peach aphid) was 80 to 100% in each case. For the compound `Cc1nc(-c2cccnc2)sc1N(C)C(=O)C(C)C` [Compound 37], the pest or weed control at 200 ppm in experiment [1] (sweetpotato whitefly-crawler) and in experiment [2] (green peach aphid) was 80 to 100% in each case.

`CSCCC(=O)N(C)c1sc(-c2cncc(F)c2)nc1C` [Compound 38]: the pest or weed control at 200 ppm in experiment [1] (sweetpotato whitefly-crawler) and in experiment [2] (green peach aphid) was 80 to 100% in each case. As for `CSCC(C)(C)C(=O)N(C)c1sc(-c2cncc(F)c2)nc1C` [Compound 39], the pest or weed control at 200 ppm in experiment [1] (sweetpotato whitefly-crawler) and in experiment [2] (green peach aphid) was 80 to 100% each time. Take `CSCC(C)C(=O)N(C)c1sc(-c2cncc(F)c2)nc1C` (stereo not drawn) [Compound 40]: the pest or weed control at 200 ppm in experiment [1] (sweetpotato whitefly-crawler) and in experiment [2] (green peach aphid) was 80 to 100% throughout. With `CSCCC(=O)N(C)c1sc(-c2cccnc2)nc1C(F)(F)F` [Compound 43], the pest or weed control at 200 ppm in experiment [1] (sweetpotato whitefly-crawler) and in experiment [2] (green peach aphid) was 80 to 100% in each case.

With `Cc1nc(-c2cccnc2)sc1N(C)C(=O)[C@@H](COCc1ccccc1)NC(=O)OC(C)(C)C` [Compound 310], in experiment [2] (green peach aphid), the pest or weed control at 200 ppm is < 80%.

Take `Cc1nc(-c2cccnc2)sc1N(C)C(=O)C(NC(=O)OC(C)(C)C)C(C)C` (stereo not drawn) [Compound 311]: the pest or weed control at 200 ppm in experiment [2] (green peach aphid) was in the range of 80 to 100%. As to `Cc1nc(-c2cccnc2)sc1N(C)C(=O)C1CCN1C(=O)OC(C)(C)C` (stereo not drawn) [Compound 338], the “BEMITA 200 ppm (Corrected % Control, rating)” value in experiment [1] (sweetpotato whitefly-crawler) is listed as “A (80-100)”. Turning to `CSCC(C)C(=O)N(C)c1sc(-c2cnc(Cl)c(F)c2)nc1Cl` (stereo not drawn) [Compound 473], in experiment [1] (Abbott's correction formula), the pest or weed control at 200 ppm is < 80%.
